{"source": "paper PMC2732577", "about": "(Biochemistry, 2008)", "assay_type_in_all_cases": "biochemical", "key": {"Pf-Sir2 [1]": {"target": "T1, Pf-Sir2 (Plasmodium falciparum, UniProt Q8IE47)", "T1 sequence (Q8IE47 1-273)": "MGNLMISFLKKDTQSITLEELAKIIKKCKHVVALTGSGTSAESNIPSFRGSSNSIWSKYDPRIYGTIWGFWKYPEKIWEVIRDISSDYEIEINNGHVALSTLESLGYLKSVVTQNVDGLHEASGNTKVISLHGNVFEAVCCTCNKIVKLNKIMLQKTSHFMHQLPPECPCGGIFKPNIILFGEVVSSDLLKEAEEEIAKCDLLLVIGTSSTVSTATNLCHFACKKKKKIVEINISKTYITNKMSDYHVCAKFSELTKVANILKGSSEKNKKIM"}, "Pf-Sir2 [2]": {"target": "T1, Pf-Sir2", "remark": "listed apart in the source"}, "Pf-Sir2 [3]": {"target": "T1, Pf-Sir2", "remark": "listed apart in the source"}, "Pf-Sir2 [4]": {"target": "T1, Pf-Sir2", "assay": "Thionicotinamide base-exchange assay", "conditions": "similar reaction conditions, H3 substrate"}, "Pf-Sir2 [5]": {"target": "T1, Pf-Sir2", "assay": "Decomposition of AADPR in presence of Pf-Sir2", "conditions": "data not shown"}}, "note": "“Also recorded” adds a separate entry of the source. Ends that are not written are not given here."}
{"compound": "NC(=O)c1ccc[n+]([C@@H]2O[C@H](COP(=O)([O-])OP(=O)(O)OC[C@H]3O[C@@H](n4cnc5c(N)ncnc54)[C@H](O)[C@@H]3O)[C@@H](O)[C@H]2O)c1", "note": "[NAD^+, nicotinamide adenine dinucleotide oxidized form]", "values": [{"measurement": "Km", "setting": "Pf-Sir2 [1]; read-out: Km for NAD^+ in H3 deacetylation", "value": 120, "unit": "µM"}, {"measurement": "rate of peptide-independent solvolysis vs deacetylation", "setting": "Pf-Sir2 [2]", "value": "exceeds the deacetylation rate for H3"}, {"measurement": "kcat, NAD^+ hydrolysis, no peptide", "setting": "Pf-Sir2 [2]; pH 7.3", "value": "1.2 ± 0.2 10^−3 s^−1"}, {"measurement": "stereochemistry of Pf-Sir2 methanolysis product", "setting": "Pf-Sir2 [3]", "value": "inverted stereochemistry; also recorded: only α-1-O-methyl-ADPR as a product (no β)"}, {"measurement": "k0 (α-MeO-ADPR)", "setting": "Pf-Sir2 [3]; pH 8.5", "value": 0.00027, "unit": "s⁻¹"}, {"measurement": "ksolvolysis (combined ADPR and 1-O-methyl-ADPR)", "setting": "Pf-Sir2 [3]; pH 8.5", "value": 0.00138, "unit": "s⁻¹"}]}
{"compound": "NC(=S)c1cccnc1", "note": "[thionicotinamide]", "values": [{"measurement": "base-exchange Km, times higher than nicotinamide", "setting": "Pf-Sir2 [4]", "value": 8, "unit": "times"}, {"measurement": "base-exchange, times slower than nicotinamide", "setting": "Pf-Sir2 [4]", "value": "approximately 4 times"}]}
{"compound": "O-acetyl-adenosine diphosphoribose [AADPR]", "values": [{"measurement": "decomposition of AADPR on adding Pf-Sir2 to SIRT1 reaction mixture", "setting": "Pf-Sir2 [5]", "value": "not decomposed"}, {"measurement": "decomposition of purified AADPR in presence of Pf-Sir2", "setting": "Pf-Sir2 [5]; relative to a control", "value": "not decomposed faster relative to a control"}]}
{"compound": "p300: human di-acetylated p300 sequence corresponding to amino acid positions 1034–1053 (ATQSSPAPGQSKKKIFKPEE; also: di-acetylated, places not given here; UniProt Q09472 1034-1053, looked up, fragment)", "values": [{"measurement": "deacetylation co-product", "setting": "Pf-Sir2 [1]", "value": "2′- and 3′- O-acetyl-ADP-ribose (AADPR)"}, {"measurement": "stimulation of NAD^+ hydrolysis by peptide", "setting": "Pf-Sir2 [2]", "value": "best hydrolysis stimulating substrate"}]}
